Test results as given in patent US20150038694A1, “GLUCOSE D[…] TO ARSENIC FOR USE IN THE TREATMENT OF TUMOUR” (XENUS SRL, priority 2012, published 2015).
“Also recorded” adds a separate entry of the source.

Columns and labels:
[1] = test system: cellular line of human promyelokytic leukemia (HL60); assay: MTT test (reduction of tetrazolium salts) on human promyelokytic leukemia cells; format: cell-based; conditions: increasing concentrations
Description: (§1) The compound GD152.186 (PM 449,4) produced by means of above mentioned synthesis process, has been tested in a series of preclinical testing on cellular lines of human tumors, and in particular on a cellular line of human neuroblastoma (SK-N-BE) and on a cellular line of human promyelokytic leukemia (HL60).
Instead, the HL60 cells grow in suspension at a temperature of 37° C. and in 5% CO2, and the culture medium used is RPMI 1640 with 10% FBS (fetal bovine serum), 1% L-Glutamine and 1% Penicillin/Streptomycin antibiotics.
(§2) As a positive control, arsenic trioxide (As2O3, Sigma-Aldrich) has been used, as its activity has already been tested on cellular lines of human neuroblastoma and human promyelokytic leukemia.
(§3) The compound GD152.186 has been dissolved in sterile water so as to reach the final concentrations of 100-300-500-1000-2000 μM.
(§4) The test used for evaluating the persistence of tumor cells after the contact with said compound GD152.186 is the MTT test (reduction of tetrazolium salts).
Said test is based on the ability of the mitochondrial respiratory enzyme of the cells, usually called succinate tetrazolium reductase, of reducing a tetrazolium salt (3-[4,5-dimethylthiazol-2-yl]-2,5-diphenyltetrazolium bromide (MTT, Sigma Aldrich)) into an insoluble compound of blue colour, usually called formazan. […]

[2] = test system: cellular line of human neuroblastoma (SK-N-BE); assay: MTT test (reduction of tetrazolium salts) on human neuroblastoma cells; format: cell-based; conditions: for reduction of the cell survival (formazan absorbance data): final concentrations 10-30-50-100 and 200 μM, forty-eight, seventy-two and ninety-six hours, absorbance at 570 nm; for morphologic changes visible with an optical microscope (loss of adherence to the plate, roundish shape with irregular outlines): treated cells
Source text: as §1
The culture medium used for growing the SK-N-BE cells is DMEM High Glucose (Dulbecco's Modified Eagle Medium) with 10% FBS (fetal bovine serum), 1% L-Glutamine and 1% Penicillin/Streptomycin antibiotics.
as §2, §3, §4
Said test is based on the ability of the mitochondrial respiratory enzyme of the cells, usually called succinate tetrazolium reductase, of reducing a tetrazolium salt (3-[4,5-dimethylthiazol-2-yl]-2,5-diphenyltetrazolium bromide (MTT, Sigma Aldrich)) into an insoluble compound of blue colour, usually called formazan.
Said reduction process occurs only in living cells and not in dead or damaged ones, consequently, the amount of formazan produced is directly proportional to the number of cells metabolically active in the tested sample.
96-well plates have been used for performing the tests, wherein in each well 5.000 (SK-N-BE) cells or 50.000 (HL60) cells have been sown, suspended in 180 μL of medium and then incubated at 37° C. and 5% CO2.
Forty-eight hours later, the cells have been treated with 20 μL of growing concentrations (in six replicates) of arsenic trioxide (100-300-500-1000 μM) and of GD152.186 compound (100-300-500-1000-2000 μM), so as to obtain inside each single well the final concentrations of 10-30-50-100 and 200 μM.
To one six-well column no compound is added but only 20 μL of sterile water, for following the natural growth of the cells.
The plates are incubated again for forty-eight, seventy-two and ninety-six hours, at the end thereof the test is performed.
To each single well 20 μL of MTT solution (5 mg·m-1 in sterile […]) have been added, giving an incubation time of three hours, functional to the formation of formazan.
Then, the supernatant is removed from each well and 200 μL of DMSO are added.
After about ten minutes the concentration level of formazan has been taken by means of a spectrophotometer set at a wave length of 570 nm.

Compound	reduction of the cell survival (formazan absorbance data), HL60 cells [1]	reduction of the cell survival (formazan absorbance data) [2]	morphologic changes visible with an optical microscope (loss of adherence to the plate, roundish shape with irregular outlines) [2]
arsenic trioxide [reference compound]	reduction of the cell survival	reduction of the cell survival is strictly dependent on the arsenic trioxide dosage and on the time of exposure	morphologic changes have been found
OC[C@H]1O[C@H](CCNc2ccc([As]3SCCS3)cc2)[C@H](O)[C@@H](O)[C@@H]1O [GD152.186]	reduction of the cell survival	reduction of the cell survival is directly depending on the dosage of the GD152.186 compound and on the time of exposure; also recorded: most visible when the cells have come into contact with high concentrations (100-200 μM)	morphologic changes have been surprisingly detected
